Measurements taken from patent US20250213707A1, “COMPOUND FOR INCREASING EFFICACY OF ONCOLYTIC VIRUSES” (ABLEVIA BIOTECH GMBH, priority 2022, published 2025).

Tests used:
mAb ADK8 = assay: Epitope mapping of mAb ADK8 against AAV peptides; format: binding, mice
Source text: Monoclonal antibody ADK8 was generated by immunizing mice with AAV8 capsids. It is directed against the assembled AAV8 capsid (Sonntag et al, 2011). […] Moreover, the binding of AAV8 to the nuclear membrane as well as the nuclear entry were abrogated following neutralization by ADK8. […] ADK8 also cross-reacts with capsid proteins from other AAV serotypes such as AAV1, AAV3, AAV7 (Mietzsch et al, 2014) and was therefore chosen as an example from which general conclusions about the present invention can be drawn.
As for the other antibodies (see examples above), several clusters were identified, delineating regions from which preferred peptides can be deduced. Most preferably, the peptides aligned below according to their binding strengths can be used for selective antibody depletion and detection as hereinabove.

[1] = tested on: IgG from human donors (anti-AAV antibodies); assay: Screen for anti-AAV antibodies in human sera, 2452 linear 15-amino-acid AAV peptides on microarrays (Table 1); format: binding; parameters: key to group I: X: the deduplicated aggregate of the respective top 10 peptide hits for each donor was compiled and designated as group I; key to group II: X: the deduplicated aggregate of the respective top 25 peptide hits for each donor was compiled and designated as group II; key to group III: X: the deduplicated aggregate of the respective top 50 peptide hits for each donor was compiled and designated as group III; conditions: human donor IgG binding to linear 15-amino-acid AAV peptides on microarray, fluorescence; for group I: membership in deduplicated aggregate of top 10 peptide hits for each donor; for group II: membership in deduplicated aggregate of top 25 peptide hits for each donor; for group III: membership in deduplicated aggregate of top 50 peptide hits for each donor
How it was run: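 Protein G-purified IgG from human donor blood incubated with microarrays of 2452 linear 15-mer peptides from 16 AAVs; binding read by fluorescence. Background-subtracted signals ranked per donor, with top 10, 25, 50 and 250 hits pooled and deduplicated into groups I-IV.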

mAb 9C12 = assay: Epitope mapping of monoclonal antibody 9C12 against cyclic peptides of the AdV hexon protein (peptide microarray); format: binding, mice; conditions: cyclic 7mer, 10mer, 13mer peptides of AdV hexon
Method: Monoclonal antibody 9C12 (alias mAB TC31-9C12·C9-s) was generated by immunizing mice with the hexon protein (Uniprot ID: P04133 which corresponds to GenBank: BAG48782.1). […] In brief, diluted antibody was incubated with GFP-expressing replication-defective Ad vector and subsequently added to Hela cells followed by fluorescence readout. […] The binding signal of mAb 9C12 to the peptides yielded several candidates that could be aligned and clustered against the protein. An epitopic cluster region of 20 amino acids was identified from which paratope binding peptides can be preferentially derived. Below are the aligments of the corresponding peptide hits from this screen. […] Cyclic peptides were selected out of up to 50 top binders in this experiment.

[2] = tested on: IgG from human donors (anti-AAV antibodies); assay: Screen for anti-AAV antibodies in human sera based on cyclic 14-amino-acid AAV peptides on microarrays (Table 2); format: binding; parameters: key: X: the deduplicated aggregate of the respective top 50 peptide hits for each donor was compiled and designated as group I; conditions: human donor IgG; circularized AAV peptides; top 50 peptide hits for each donor
Method: More than 1200 cyclic peptides derived from the sequences of human and rhesus monkey AAV sequences and artificial AAV sequences according to Table 2 and with a sequence length of 14 amino-acids each were synthesized.
Samples obtained from human donors were screened for antibodies against these AAV-derived peptides immobilized on microarrays. To this end, IgG was prepared from blood obtained from the human donors by protein G purification. Each IgG sample was incubated with the peptide microarrays and Ig binding signals were detected by fluorescence. All antibody binding signals to the peptides on the arrays were background subtracted and ranked for each sample and a deduplicated aggregate of the respective top 250 peptide hits for each donor with the corresponding protein sequence of origin (as obtained from UniProt or other sources) was compiled (designated as group II). Further, the deduplicated aggregate of the respective top 50 peptide hits for each donor was compiled and designated as group I.
Altogether, group I contains 47 distinct peptide hits (assigned to the corresponding AAV vectors in Table 2) and group II yielded 172 distinct peptide hits. Evidently, group I is a subset of group II.

Substance: 350 (PLIDQYLYYL) [compound 350]
- peptide number according to binding strength (mAb ADK8): 29

Substance: 317 (LQGPIWA) [compound 317]
- peptide number according to binding strength (mAb ADK8): 12

Substance: 345 (AVGRSSFYCLEYF) [compound 345]
- peptide number according to binding strength (mAb ADK8): 22

Substance: DGHFHPSPLMGGFG (REGION 1..14: note = peptide derived from viral capsid protein) [SEQ ID NO: 1977]
- group I [1]: X
- group II [1]: X
- group III [1]: X
- ranked binding signal obtained from the microarray (01 binds strongest) (mAb 9C12): 10

Substance: TQYSTGQVSVEIEW (REGION 1..14: note = peptide derived from viral capsid protein) [SEQ ID NO: 1969]
- group I [1]: X
- group II [1]: X
- group III [1]: X
- ranked binding signal obtained from the microarray (01 binds strongest) (mAb 9C12): 02

Substance: 330 (NWLPGPC) [compound 330]
- peptide number according to binding strength (mAb ADK8): 04

Substance: 323 (YSTPWGYFDF) [compound 323]
- peptide number according to binding strength (mAb ADK8): 11

Substance: 344 (GRSSFYC) [compound 344]
- peptide number according to binding strength (mAb ADK8): 14

Substance: EEIRTTNPVATEQY (REGION 1..14: note = peptide derived from viral capsid protein) [SEQ ID NO: 1980]
- group I [1]: X
- group II [1]: X
- group III [1]: X
- ranked binding signal obtained from the microarray (01 binds strongest) (mAb 9C12): 13

Substance: YFGYSTPWGYFDFN (REGION 1..14: note = peptide derived from viral capsid protein) [SEQ ID NO: 1972]
- group I [1]: X
- group II [1]: X
- group III [1]: X
- ranked binding signal obtained from the microarray (01 binds strongest) (mAb 9C12): 05

Substance: 329 (FGYSTPWGYFDFN) [compound 329]
- peptide number according to binding strength (mAb ADK8): 34

Substance: KRPVDQSPQEPDSS (REGION 1..14: note = peptide derived from viral capsid protein) [SEQ ID NO: 1986]
- group I [1]: X
- group II [1]: X
- group III [1]: X
- ranked binding signal obtained from the microarray (01 binds strongest) (mAb 9C12): 19

Substance: DAEFQERLKEDTSF (REGION 1..14: note = peptide derived from viral capsid protein) [SEQ ID NO: 1975]
- group I [1]: X
- group II [1]: X
- group III [1]: X
- ranked binding signal obtained from the microarray (01 binds strongest) (mAb 9C12): 08

Substance: WLEDNLSEGIREWW (REGION 1..14: note = peptide derived from viral capsid protein) [SEQ ID NO: 1971]
- group I [1]: X
- group II [1]: X
- group III [1]: X
- ranked binding signal obtained from the microarray (01 binds strongest) (mAb 9C12): 04

Substance: 318 (RDVYLQG) [compound 318]
- peptide number according to binding strength (mAb ADK8): 20

Substance: 322 (GYSTPWGYFD) [compound 322]
- peptide number according to binding strength (mAb ADK8): 10

Substance: DDEEKFFPMHGNLI [SEQ ID NO: 1976]
- group I [1]: X
- group II [1]: X
- group III [1]: X
- ranked binding signal obtained from the microarray (01 binds strongest) (mAb 9C12): 09

Substance: GDSESVPDPQPLGE [SEQ ID NO: 1983]
- group I [1]: X
- group II [1]: X
- group III [1]: X
- ranked binding signal obtained from the microarray (01 binds strongest) (mAb 9C12): 16

Substance: 315 (DVYLQGP) [compound 315]
- peptide number according to binding strength (mAb ADK8): 05

Substance: 1923 (TAPGKKRPVDQSPQ; REGION 1..14: note = peptide derived from viral capsid protein) [compound 1923]
- group I [2]: X

Substance: 313 (VYLQGPI) [compound 313]
- peptide number according to binding strength (mAb ADK8): 02

Substance: 1932 (DEEEIKATNPVATE; REGION 1..14: note = peptide derived from viral capsid protein) [compound 1932]
- group I [2]: X

Substance: 328 (YFGYSTPWGY) [compound 328]
- peptide number according to binding strength (mAb ADK8): 28

Substance: 343 (PYVLGSAHQGCLP) [compound 343]
- peptide number according to binding strength (mAb ADK8): 46

Substance: 339 (YVLGSAHQGC) [compound 339]
- peptide number according to binding strength (mAb ADK8): 37

Substance: 1893 (DTNGVYSEPRPIGT; REGION 1..14: note = peptide derived from viral capsid protein) [compound 1893]
- group I [2]: X

Substance: 351 (IDQYLYY) [compound 351]
- peptide number according to binding strength (mAb ADK8): 36

Substance: 338 (LPYVLGSAHQGCL) [compound 338]
- peptide number according to binding strength (mAb ADK8): 32

Substance: 336 (GCLPPFP) [compound 336]
- peptide number according to binding strength (mAb ADK8): 13

Substance: 1904 (YHLNGRDSLVNPGP; REGION 1..14: note = peptide derived from viral capsid protein) [compound 1904]
- group I [2]: X

Substance: 1899 (SESVPDPQPIGEPP; REGION 1..14: note = peptide derived from viral capsid protein) [compound 1899]
- group I [2]: X

Substance: 1924 (YDQQLKAGDNPYLK; REGION 1..14: note = peptide derived from viral capsid protein) [compound 1924]
- group I [2]: X

Substance: 1917 (HYFGYSTPWGYFDF; REGION 1..14: note = peptide derived from viral capsid protein) [compound 1917]
- group I [2]: X

Substance: 1921 (PEIQYTSNYNKSVN; REGION 1..14: note = peptide derived from viral capsid protein) [compound 1921]
- group I [2]: X

Substance: 342 (VLGSAHQGCL) [compound 342]
- peptide number according to binding strength (mAb ADK8): 45

Substance: 1935 (EEEIKTTNPVATEE; REGION 1..14: note = peptide derived from viral capsid protein) [compound 1935]
- group I [2]: X

Substance: 349 (DQYLYYL) [compound 349]
- peptide number according to binding strength (mAb ADK8): 19

Substance: 347 (QAVGRSSFYCLEY) [compound 347]
- peptide number according to binding strength (mAb ADK8): 33

Substance: 1933 (DKDKFFPMSGVMIF; REGION 1..14: note = peptide derived from viral capsid protein) [compound 1933]
- group I [2]: X

Substance: 1920 (KTAPGKKRPVDQSP; REGION 1..14: note = peptide derived from viral capsid protein) [compound 1920]
- group I [2]: X

Substance: 346 (AVGRSSFYCL) [compound 346]
- peptide number according to binding strength (mAb ADK8): 24

Substance: 321 (FGYSTPWGYF) [compound 321]
- peptide number according to binding strength (mAb ADK8): 09

Substance: 331 (WLPGPCY) [compound 331]
- peptide number according to binding strength (mAb ADK8): 15

Substance: 341 (SAHQGCLPPF) [compound 341]
- peptide number according to binding strength (mAb ADK8): 39

Substance: 340 (CLPPFPA) [compound 340]
- peptide number according to binding strength (mAb ADK8): 38

Substance: 1912 (PQILIKNTPVPADP; REGION 1..14: note = peptide derived from viral capsid protein) [compound 1912]
- group I [2]: X

Substance: 348 (NGSQAVGRSSFYC) [compound 348]
- peptide number according to binding strength (mAb ADK8): 35

Substance: 1926 (DKAYDRQLDSGDNP; REGION 1..14: note = peptide derived from viral capsid protein) [compound 1926]
- group I [2]: X

Substance: 325 (TPWGYFDFNRFHC) [compound 325]
- peptide number according to binding strength (mAb ADK8): 18

Substance: 1902 (DEEEIRTTNPVATE; REGION 1..14: note = peptide derived from viral capsid protein) [compound 1902]
- group I [2]: X

Substance: 1896 (KIFNIQVKEVTTSN; REGION 1..14: note = peptide derived from viral capsid protein) [compound 1896]
- group I [2]: X

Substance: 337 (VLGSAHQGCLPPF) [compound 337]
- peptide number according to binding strength (mAb ADK8): 27

Substance: 1897 (GNTSQQQTDRNAFY; REGION 1..14: note = peptide derived from viral capsid protein) [compound 1897]
- group I [2]: X
